Measurements as given in patent US8329160B2, “Interferon alpha sequential regimen for treating cancers” (HI-Stem, priority 2007, dated 2012).

Experiments:
HSCs [1] = assay: Survival of mice under repeated 5FU after polyIC priming (IFN alpha pulse); type: in vivo
Experimental: Wild-type C57B1/6 and IFNAR−/− mice were treated as follows: mice were injected with […] mouse polyIC (Invivogen) twice (polyIC is a double stranded RNA mimetic strongly inducing IFNα/b), the lag time between the two injections being 48 h. PolyIC injections are used in this experiment as IFN alpha “pulse”. Mice that were only treated with 5FU without priming injections of polyIC were used as controls.
5-Fluoro-uracil (5FU) was injected (150 mg/kg, Sigma) at different times after the last polyIC injection: 0 h (same time as last polyIC injection); 24 h, 48 h, 72 h, 5 days and 7 days. The proliferation rate of cells at time of 5FU injection was analyzed by BrdU analysis of KLS cells as described in the above examples. Single 5FU injections were repeated every 7 days. The survival of the mice was monitored for a period of 20 days.

[2] = test system: hematopoietic stem cells (HSCs) (lineage-CD117+Sca1+); assay: BrdU uptake (proliferation rate) of KLS hematopoietic stem cells in treated mice; type: in vivo
Experimental: Wild-type C57B1/6 mice were treated with IFNα which was obtained as decribed in the literature (Le Bon et al., 2003, Nat. Immunol. 4(10):1009-15). at 0 h and 24 h, respectively with 10×10^3 U/mouse, and were then treated at 36 h with Bromodeoxyuridine (BrdU) at 360 μg/mouse for cell detection. Mice which were only injected with BrdU were used as control. Bone marrow was then taken from the long bones of hindlegs and prepared by standard procedures (Wilson et al., 2004, Genes & Dev 18; 2747-2763). Bone marrow cells were then stained with a cocktail of conjugated antibodies (Bioscience) against mice lineage markers (CD4, CD8, CD11b, Gr1, Ter119, B220), CD117 (c-kit), Sca1 (Ly-6A/E), CD34, CD135, CD48 or CD150). Cells were then fixed. BrdU uptake was analyzed using the BrdU staining kit (BD Biosciences).
Five and six-color flurorescent-activated cell sorting (FACS) analysis (FITC, PE, PE-Cy5, PE-Cy7, APC, APC-Cy7) were performed using a FACS Canto flow cytometer (Becton Dickinson) as described in the literature (Wilson et al., 2004, above). Data were analyzed using FlowJo (Tree Star, Inc.; Ashland, USA software).
Percentages of BrdU positive KLS-HSCs cells (lineage CD117+Sca1+) were determined as a measurement of the proliferation rate of these cells. The same BrdU analyses were performed on subpopulations of HSCs.

[3] = test system: dormant HSCs (KLS CD150+CD48-CD34-); assay: BrdU pulse-chase, label-retaining (dormant) long-term HSCs; type: in vivo, mice
Experimental: After a period of permanent BrdU labeling for 10 days, mice were kept without BrdU for 70 days. 14 days before the analysis, the mice were either treated three times with polylC or with PBS. 10 days later (and 70 days after the last BrdU injection) three HSC populations containing an increasing percentage of dormant HSCs were isolated and analysed for the presence of BrdU+label-retaining cells (LRCs), which represent dormant HSCs.
C57B1/6 mice and IFNAR−/− mice were given BrdU (0.8 mg/ml; Sigma) in the drinking water for 10 days. After this BrdU pulse, mice were left for a chase of 10 weeks. Then, mice were twice injected with IFNα at a concentration of 10×10^3 U/mouse each (48 h gap between the 2 injections) or left untreated. BrdU uptake was then analyzed 10 days after the last IFNα injection. After this BrdU pulse-chase experiment in wild-type mice, about 15% of the long-term HSCs (KLS CD150+CD48−CD34−) are still labeled with BrdU (label retaining cells-LRCs). […] This was not the case with long-term HSCs lacking the IFN-receptor (in IFNAR−/− mice) showing that this effect is indeed mediated by Interferon signaling (FIG. 1D).

HSCs [4] = assay: Mixed bone marrow chimeras (wt / IFNAR-/-), BrdU uptake in LSK cells; type: in vivo, mice; details: IFNα 10×10^3 U/mouse
Experimental: The different mice were treated with IFNα (10×103 U/mouse) in comparison with untreated wt mice (C) as described in Example 3. FIG. 2B represents the BrdU uptake in wt (CD45.1) and IFNAR−/− (CD45.2) LSK cells in the mixed bone marrow chimeras in response to treatment with IFNα.
To investigate whether HSCs respond directly to IFNα in vivo, mixed bone marrow “chimeras” comprising various ratios of wild-type (wt) and IFNAR−/− (IFNRKO) bone marrow cells were treated with IFNα (10×10^3 U/mouse) in comparison with untreated wt mice (C) (FIG. 2A).

Compound: O=c1[nH]cc(F)c(=O)[nH]1 [5FU, 5-Fluoro-uracil]
- survival of mice under repeated 5FU treatment without polyIC priming (HSCs [1]; 5FU 150 mg/kg every 7 days, 20 days): do survive

Compound: IFNα
- dose dependence of increase in proliferation ([2]; different doses of IFNα (U/g of mouse)): dose-dependent
- proliferation in subpopulations of HSCs (long-term HSCs, short-term HSCs, MPPs) ([2]; wild-type C57B1/6 mice, after IFNα treatment): increase in proliferation in all subpopulations of HSCs
- proliferation rate of HSCs (percentage of BrdU positive KLS cells) ([2]; wild-type C57B1/6 mice, IFNα 10×10^3 U/mouse at 0 h and 24 h, BrdU at 36 h, untreated control 23%): 63%
- absolute cell numbers of HSCs ([2]; wild-type mice, after IFNα treatment): increase in absolute cell numbers
- reduction of LRC+ long-term HSCs (activation of dormant HSCs) ([3]; IFNAR-/- mice (HSCs lacking the IFN-receptor)): not the case
- number of LRC+ long-term HSCs (BrdU label retaining cells) ([3]; wild-type mice, 2 injections IFNα 10×10^3 U/mouse 48 h apart, analysed 10 days after last injection, untreated about 15% LRC): dramatically reduced
- activation of HSCs in mixed wt / IFNAR-/- bone marrow chimeras (HSCs [4]): direct and an indirect activation

Compound: polyIC [reference compound]
- increase of HSC proliferation rate (BrdU uptake) ([2]; IFNAR-/- mice, polyIC once at 10 μg/g): not seen
- effect of polyIC priming on survival under 5FU (HSCs [1]; IFNAR-/- mice): no effect on the survival
- survival of mice (lethality by elimination of all HSCs) (HSCs [1]; wild-type C57B1/6, polyIC twice (48 h apart) prior to 5FU 150 mg/kg repeated every 7 days, 20 days monitoring): efficient lethality
- percentage of BrdU+-LRCs in HSC populations ([3]; mice treated three times with polyIC vs PBS, 70 days after last BrdU): strongly reduced
